pIC50, pKd: −log10 of the molar value. Peptide text beside a SMILES is read from it. * marks the point of attachment. X1 = CC1(C)S[C@@H]2[C@H](NC(=O)C*)C(=O)N2[C@H]1C(=O)O; Carboxymethyl = O=C(O)C*

Assay [1] deals with T1, PBP2a (Staphylococcus aureus, UniProt P07944). Nature of the assay: Relative IC50 competition assay of peptide penicillanate conjugates against PBP2a (biotinylated ampicillin). It is filed as binding. Also noted: This part was cleaved off with DTT before the test.
Procedure: Relative IC50 Assay of Peptide Penicillanate Conjugates
Various concentration of conjugates were prepared by dissolving in reaction buffer (50 mM phosphate, pH=8.0; 100 mM NaCl) and incubating with 2 Vg pure PBP2a respectively at 37° C. for 15 min. 20 μg biotinylated ampicillin was added immediately and incubated at 37° C. for 10 min. The reaction was stopped by heating the reaction mixture at 94° C. for 5 min. The samples were loaded into 12% SDS-PAGE for separation, then were transferred to a nitrocellulose membrane by blotting with sodium bicarbonate buffer (20% methanol; 3 mM Na2CO3; 10 mM NaHCO3) at 400 mA for 3 hr. The membrane was blocked with blocking solution (20 mM Tris, pH=8.0; 150 mM NaCl; 0.05% TWEEN-20 detergent; 5% milk) for 1 hr, then incubated with 10 ml TBS buffer (20 mM Tris, pH=8.0; 150 mM NaCl) containing 1 μg/ml streptavidin-HRP protein (Pierce Chemical) at room temperature for 1 hr. The membrane was washed 6 times with 50 ml TBS buffer, at 5 min intervals, and covered with FEMTO-WESTERN blotting reagent (Pierce Chemical). The membrane was then examined under a digital camera at dark to collect chemiluminescent emission for 10-15 min.
Assay [2] addresses Grb2 N terminal SH3 domain (Homo sapiens, UniProt P62993). As to conditions: substitution for proline at P2 and P−1; cited from earlier work.
In assay [3] the target is Crk N terminal SH3 domain (Homo sapiens, UniProt P46108). Conditions: substitution for proline at P2 and P−1; cited from earlier work.
The target of assay [4] is T1, PBP2a. Conditions: cited from earlier work.
Assay [5] deals with translation complex A site. Conditions: ribosome; cited from earlier work.
The target in assay [6] is penicillin-binding protein 2a (PBP2a) (Staphylococcus aureus (MRSA)) (UniProt P07944). As to the kind of experiment: relative IC50: competition with biotinylated ampicillin for labelling of pure PBP2a, streptavidin-HRP blot.
Assay [7] has the same target. As to the kind of experiment: ratio of relative IC50 values against the 6-aminopenicillanic acid reference, biotinylated ampicillin competition on PBP2a.
For assay [8] the target is unchanged. Nature of the assay: relative IC50: conjugate pre-incubated with pure PBP2a 15 min at 37 C, then competition with biotinylated ampicillin, SDS-PAGE and streptavidin-HRP blot.

Chain of penicillin-binding protein 2a (PBP2a) (Staphylococcus aureus (MRSA)) (P07944 23-670): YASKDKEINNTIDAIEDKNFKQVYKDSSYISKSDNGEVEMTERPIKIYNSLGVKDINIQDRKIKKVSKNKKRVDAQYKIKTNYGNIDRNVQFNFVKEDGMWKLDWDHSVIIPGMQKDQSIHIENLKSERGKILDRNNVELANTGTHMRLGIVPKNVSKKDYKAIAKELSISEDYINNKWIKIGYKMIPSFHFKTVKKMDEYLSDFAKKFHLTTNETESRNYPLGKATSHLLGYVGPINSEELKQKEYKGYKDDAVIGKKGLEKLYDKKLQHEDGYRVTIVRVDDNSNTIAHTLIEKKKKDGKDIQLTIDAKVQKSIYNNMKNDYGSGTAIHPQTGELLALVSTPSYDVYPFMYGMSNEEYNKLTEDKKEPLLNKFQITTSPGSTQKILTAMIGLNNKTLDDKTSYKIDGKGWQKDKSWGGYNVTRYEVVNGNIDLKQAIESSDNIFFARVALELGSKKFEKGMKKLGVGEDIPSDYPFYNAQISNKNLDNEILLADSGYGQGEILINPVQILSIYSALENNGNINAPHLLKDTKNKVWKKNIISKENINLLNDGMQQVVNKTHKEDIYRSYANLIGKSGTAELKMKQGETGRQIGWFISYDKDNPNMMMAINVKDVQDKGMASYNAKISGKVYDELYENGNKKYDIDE
T1 sequence (P07944 whole entry, the tested form may be a part): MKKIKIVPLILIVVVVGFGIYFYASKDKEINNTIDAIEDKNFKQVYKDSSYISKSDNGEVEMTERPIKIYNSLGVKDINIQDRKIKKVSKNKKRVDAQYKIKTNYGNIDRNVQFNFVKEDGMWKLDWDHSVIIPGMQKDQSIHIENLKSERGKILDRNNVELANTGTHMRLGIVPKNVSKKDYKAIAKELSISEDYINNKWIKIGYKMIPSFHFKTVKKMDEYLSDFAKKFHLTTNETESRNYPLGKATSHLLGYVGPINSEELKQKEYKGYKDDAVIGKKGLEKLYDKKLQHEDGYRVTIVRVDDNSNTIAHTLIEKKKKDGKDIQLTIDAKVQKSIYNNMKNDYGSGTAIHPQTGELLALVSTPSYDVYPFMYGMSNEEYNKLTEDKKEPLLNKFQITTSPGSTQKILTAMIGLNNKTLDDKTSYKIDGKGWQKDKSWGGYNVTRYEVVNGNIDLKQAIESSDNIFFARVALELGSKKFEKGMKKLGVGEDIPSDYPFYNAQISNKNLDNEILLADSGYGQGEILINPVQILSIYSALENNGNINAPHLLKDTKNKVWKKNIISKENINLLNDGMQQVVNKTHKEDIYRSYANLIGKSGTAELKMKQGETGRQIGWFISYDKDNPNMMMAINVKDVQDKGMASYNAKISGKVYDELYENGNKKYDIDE
Chain of Grb2 N terminal SH3 domain (P62993 1-58 limits assumed): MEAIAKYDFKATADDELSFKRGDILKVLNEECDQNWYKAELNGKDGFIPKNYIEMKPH
Chain of Crk N terminal SH3 domain (P46108 132-192 limits assumed): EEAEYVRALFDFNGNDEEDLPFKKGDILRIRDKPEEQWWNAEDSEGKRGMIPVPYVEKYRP

As to `CC[C@H](C)[C@H](NC(=O)[C@H](CSCC(=O)N[C@@H]1C(=O)N2[C@@H]1SC(C)(C)[C@@H]2C(=O)O)NC(=O)[C@H](CC(N)=O)NC(=O)[C@H](CO)NC(=O)[C@H](CC(N)=O)NC(=O)[C@H](CCCNC(=N)N)NC(=O)[C@@H](N)CC(C)C)C(=O)N[C@@H](CCCNC(=N)N)C(=O)N[C@@H](Cc1c[nH]cn1)C(=O)N[C@@H](Cc1ccccc1)C(=O)N[C@@H](Cc1ccccc1)C(=O)O` [LRNSNC(pen)IRHFF] (H-LRNSNC(X1)IRHFF-OH; N-terminus and C-terminus assumed), in assay [1] (PBP2a inhibition), the “improvement as compared to 6-APA” value is given as “about 100 fold”.
Regarding `CNCC(=O)O` [N-methyl glycine], the “change in the binding” value in assay [2] and in assay [3] was “little change” throughout.
For `CC1(C)S[C@@H]2[C@H](NC(=O)Cc3ccccc3)C(=O)N2[C@H]1C(=O)O` [benzyl penicillin], the “rate constant for covalent attachment to PBP2a (k2)” value in assay [4] was 0.22 s⁻¹.
As for `COc1cccc(OC)c1C(=O)N[C@@H]1C(=O)N2[C@@H]1SC(C)(C)[C@@H]2C(=O)O` [methicillin], the “rate constant for covalent attachment to PBP2a (k2)” value in assay [4] was 0.0083 s⁻¹.
On to `COc1ccc(C[C@H](N)C(=O)N[C@H]2[C@@H](O)[C@H](n3cnc4c(N(C)C)ncnc43)O[C@@H]2CO)cc1` [puromycin], for which the negative-log Kd (pKd) (usually the Kd on a negative log10 scale, so that one unit is a factor of ten) in assay [5] was 4.00.
Take `CC[C@H](C)[C@H](NC(=O)[C@H](CSCC(=O)O)NC(=O)[C@H](CC(N)=O)NC(=O)[C@H](CO)NC(=O)[C@H](CC(N)=O)NC(=O)[C@H](CCCNC(=N)N)NC(=O)[C@@H](N)CC(C)C)C(=O)N[C@@H](CCCNC(=N)N)C(=O)N[C@@H](Cc1c[nH]cn1)C(=O)N[C@@H](Cc1ccccc1)C(=O)N[C@@H](Cc1ccccc1)C(=O)O` [unmodified peptide] (H-LRNSNC(Carboxymethyl)IRHFF-OH): the pIC50 (in general, the IC50 on a negative log10 scale, so that one unit is a factor of ten) in assay [1] was below 1.46.
Consider “LRNSNC(COOH)IRHFF (residues 2-12 of SEQ ID NO: 5) (peptide)”, for which the negative logarithm of the IC50 (pIC50) in assay [6] is below 1.46.
Take “LRNSNC(pen)IRHFF (residues 2-12 of SEQ ID NO: 5) (peptide)”: the fold improvement compared to 6-APA in assay [7] turned out to be 100 fold. For the same molecule, the negative-log IC50 (pIC50) in assay [8] is 2.15.

(Values after patent US20030235851A1, “Methods of using sense and/or nonsense suppression to make nucleic acid-peptide display libraries containing peptides with unnatural amino acid residues” (priority 2002, published 2003).)
